Values joined by “and” are separate entries in the source; they are usually repeats but may differ in a detail not shown here. Equal entries are not always repeated.
Experiments:
[1] = target: Igf2bp1-cMyc RNA interaction (Homo sapiens, UniProt Q9NZI8); conditions: fluorescence polarization; cited from earlier work
H1299 cells = assay: Wound healing (cell migration) assay, H1299 cells; format: cell-based, human; conditions: H1299 cells; 10 μM compound 15 vs 20 μM 7773 in FIGS. 20A-B
Protocol: Cells were seeded in 96 IncuCyte® ImageLock plates (20×10^3 cells per well) for 24 hours, to a near confluency of 95%, before the addition of increasing concentrations of compound. After a further 24 hours, wells were scratched using the IncuCyte® 96-well WoundMaker Tool, and the cells cultured for an additional 48 hours using the IncuCyte® S3 Live-Cell Analysis System (Essen BioScience). The plate was imaged at increments of 120 minutes for a period of 48 hours, and then analyzed for relative wound healing.

[2] = Cell proliferation, compound 15 (cell line not stated); format: cell-based
[3] = target: T1, Igf2bp1 binding to Kras 6 RNA (Homo sapiens, UniProt Q9NZI8); assay: Fluorescence polarization (FP) assay of Igf2bp1 binding to fluorescent Kras 6 RNA; conditions: FP dose response; read-out: IC50 for inhibition of Igf2bp1 binding to Kras 6 RNA
T1 construct: Recombinant full-length Igf2bp1 protein; made in house; host or cells: E. coli BL21(DE3)
Protocol: For the small molecule screen, compounds were obtained from the collection maintained at the Grand Israel National Center for Personalized Medicine, consisting of molecules purchased from commercial vendors. Labelled RNA (10 nM) was incubated with recombinant Igf2bp1 protein (400 nM) in FAM-RNA buffer (10 mM Tris pH 8.0, 75 mM KCl, 0.5 mM EDTA, 1 mM DTT, 0.0188 U/μL RNAsin, 0.0005 μg/mL heparin, 0.0001 μg/μL tRNA, 0.01% Triton X-100, 3 mM MgCl2, 0.05% IGEPAL) at room temperature for 15 min. […] of this reaction mix was aliquoted with GNF WDII (USA) into wells of 1536 well plates, with a final concentration of […] compound or DMSO. The plates were spun down and read in a BMG Pherastar FS (Germany) plate reader plate reader, in FP mode with a 485/520/520 polarization filter, calibrated to 35 mP for free fluorescein with similar total intensity as experimental samples. […]
To determine the quality of the inventors screening assay, the Z′ factor for each plate was calculated with a Z′ factor greater than 0.5 indicating a robust assay suitable for high throughput screening. Compounds that altered the overall fluorescence intensity compared to controls were considered auto florescence and excluded from further analysis. […] Any small molecule that causes a change of more than three standard deviations from the mean is determined appropriate for further investigation.

Igf2bp1 = target: T2, Igf2bp1 (Homo sapiens, UniProt Q9NZI8); assay: Microscale thermophoresis (MST) binding to full-length Igf2bp1; conditions: MST
T2 construct: Recombinant full-length Igf2bp1 protein; made in house; host or cells: E. coli BL21(DE3)
Protocol: Recombinant full-length Igf2bp1 protein was labelled with RED-tris-NTA dye using a Monolith NT His-Tag Labelling Kit (NanoTemper) while RRM12, KH12 and KH34 di-domain peptides were labelled using the Protein Labeling Kit RED NHS 2nd generation (NanoTemper). Labelled proteins were spun at 15,000 g for 5 min to eliminate aggregates. All samples were 2× labelled protein mix of Igf2bp1 (200 nM) in PBST and were combined (1:1) with serial dilutions of compound or Kras6 RNA in binding buffer (10 mMTris pH=7.5, 100 mM NaCl, 0.1 mM EDTA, 0.06% IPEGAL, 0.02 μg/μL tRNA, 2 mM DTT, 0.1 μg/μL heparin) in final volume of 20 μL, room temperature for 15 min. Samples were then loaded into standard capillaries (NanoTemper) and read in the Monolith NT.115 scanner (NanoTemper) using the red filter with reading conditions of 95% LED power and 40% MST power, 5 sec fluorescence before, 30 sec MST on, 5 sec fluorescence after and 25 sec delay between samples. Results were analyzed using the MO Control software (NanoTemper) for curve fitting to KD.

[4] = target: T1, Igf2bp1 binding to Kras 6 RNA; assay: EMSA, Igf2bp1 with fluorescent Kras 6 RNA; set-up: dose or concentration left out as unconfirmed
Protocol: Recombinant Igf2bp1 protein was serially diluted (1:1) starting at an initial concentration of 10,000 nM in 0.75 μg heparin, in a total volume of 13 μL. Fluorescently labelled Kras 6 RNA (750 nM) diluted in reaction buffer (10 mM Tris pH 7.5, 100 mM NaCl, 0.1 mM EDTA, 1 mg/mL tRNA, 0.25% IGEPAL (Sigma), 0.5 mM DTT) was heated to 65° C. for 5 minutes, kept on ice for 1 minute and RNasin (200 U/mL) (ThermoScientific, RiboLock RNase inhibitor) was then added. […] RNA was added to each well protein sample, and after a 30 min incubation at room temperature in the dark, loading dye (3 μL) (30% glycerol, 0.01% bromocresol green) was added to each mixture. For compound inhibition experiments, compounds or DMSO were incubated for 4 hours at 37° C. with the protein prior to adding the RNA. Samples were electrophoresed on native TBE polyacrylamide gels (6% acrylamide/bis-acrylamide 37.5:1, 0.5×TBE) that had been pre-run for 30 min. Gels were run at 120V in 0.5×TBE, at 4° C. in the dark. They were then carefully washed and scanned using a Typhoon FLA9500 imager using Alexa 488 laser and LPB1/2 filter. Igf2bp1-RNA complex formation was quantified using the ImageJ software. Prism6 software was used for curve fitting and KD calculations.

La protein = target: T3, La protein (UniProt P05455 P05455:1-408); assay: EMSA; not affected by 7773; conditions: label: 5'-6FAM
T3 sequence: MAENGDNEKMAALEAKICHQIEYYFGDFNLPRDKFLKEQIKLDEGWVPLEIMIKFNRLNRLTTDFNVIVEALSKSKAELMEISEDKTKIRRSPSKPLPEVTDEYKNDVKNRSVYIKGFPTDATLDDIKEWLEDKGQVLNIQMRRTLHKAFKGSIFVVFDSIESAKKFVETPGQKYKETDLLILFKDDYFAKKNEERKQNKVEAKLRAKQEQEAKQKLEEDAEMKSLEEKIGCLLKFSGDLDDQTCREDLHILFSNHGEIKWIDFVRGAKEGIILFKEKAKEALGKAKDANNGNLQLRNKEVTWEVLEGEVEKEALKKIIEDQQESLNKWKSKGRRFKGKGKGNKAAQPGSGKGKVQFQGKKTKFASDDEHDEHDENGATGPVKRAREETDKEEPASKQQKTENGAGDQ

T1 sequence (Q9NZI8 whole entry): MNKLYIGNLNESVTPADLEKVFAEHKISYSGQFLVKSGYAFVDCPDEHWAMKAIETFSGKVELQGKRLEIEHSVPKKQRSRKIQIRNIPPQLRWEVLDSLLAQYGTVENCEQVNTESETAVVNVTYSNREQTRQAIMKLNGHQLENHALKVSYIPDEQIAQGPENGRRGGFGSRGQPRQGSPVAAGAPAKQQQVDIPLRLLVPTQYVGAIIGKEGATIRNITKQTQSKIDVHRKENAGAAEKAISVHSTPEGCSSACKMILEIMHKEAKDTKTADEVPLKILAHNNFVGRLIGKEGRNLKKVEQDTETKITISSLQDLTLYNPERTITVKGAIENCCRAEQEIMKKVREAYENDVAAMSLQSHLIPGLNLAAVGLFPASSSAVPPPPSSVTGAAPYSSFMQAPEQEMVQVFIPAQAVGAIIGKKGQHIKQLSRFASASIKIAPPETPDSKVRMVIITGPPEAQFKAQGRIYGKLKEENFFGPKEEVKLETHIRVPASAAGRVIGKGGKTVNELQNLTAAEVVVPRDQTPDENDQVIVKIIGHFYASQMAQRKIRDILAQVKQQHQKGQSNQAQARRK
Igf2bp1-cMyc RNA interaction, sequence (Q9NZI8 whole entry): as above
T2 sequence (Q9NZI8 whole entry): as above

NC(=O)c1ccccc1N=Cc1ccc(Br)s1 [BTYNB]
Igf2bp1-cMyc RNA interaction in vitro [1]: inhibited

O=C(c1ccc(Cn2c(CO)cc3ccccc32)cc1)N1CCN(c2ccc3c(c2)OCO3)CC1 [Compound 15]
Efficiency at inhibiting wound healing compared to Compound 7773 (H1299 cells): over 10 fold | Cell proliferation [2]: inhibition of cell proliferation

O=C(c1cccc(-n2cnnn2)c1)N1CCCC(Nc2ccc3c(c2)OCO3)C1 (stereo not shown) [Compound 393, reference compound]
IC50 [3]: ~90 µM and > 100 µM | Affinity for Igf2bp1 relative to 7773 (Igf2bp1): approximately seven times lower affinity | Inhibition of Igf2bp1 binding to Kras 6 RNA (gel shift) [4]: lower, but observable, inhibition of RNA binding

B1: Bcl2 RNA oligo (ssRNA)
RNA: CCCGUUGCUUUUCCUCUGGGAAGGAUGGCGCACGCUGGG
binding result (La protein): binds
